This note sets out measurements from patent publication US10968215B2 (SHANGHAI HAIHE PHARMACEUTICAL CO., LTD., priority 2016, dated 2021).

Read-outs that look alike come from different tables or passages of the source.

Assay [1] deals with PRC2 complex (EZH2/EED/SUZ12/RbAp48/AEBP2) (Homo sapiens (Human), UniProt Q15910). Put plainly: Activity of a compound to PRC2 complex (EZH2 wild type), ELISA. The class given is biochemical. The conditions noted are these: class symbols. On the technique in general: ELISA stands for enzyme-linked immunosorbent assay.
Description: Determination of the Activity of a Compound to PRC2 Complex (EZH2 Wild Type):
Detection Method: Enzyme-Linked Immunosorbent Assay (ELISA)
MATERIALS: The PRC2 complex (EZH2/EED/SUZ12/RbAp48/AEBP2) histone methyltransferase was purchased from BPS; the substrate Biotin H3 (21-44) me0 was produced by AnaSpec; SAM was purchased from Sigma, which is GL Biochem product; methyl donor SAM was purchased from Sigma-aldrich; H3K27me3 antibody was purchased from BPS.
Experimental method: avdin of a final concentration of 100 nM was used to coat 96-well plate at 10 μL/well, placed in a wet box and shaken overnight, and then 100 μL 3% BSA per well was added and blocked for 1 h at room temperature. PRC2 complex (EZH2/EED/SUZ12/RbAp48/AEBP2), H3 (21-44) me0 substrate, methyl donor SAM and compound were added into each well of the blocked 96-well plate. The total reaction system was 100 μL, placed in a wet box and allowed to react for 1 h on shaker at room temperature. The plate was washed with TBS-T [20 mM Tris-HCl (pH 7.2-7.4, room temperature), 150 mM NaCl, 0.1% (v/v) Tween-20] for 3 times, blocked with 3% BSA for 10 min, and anti-H3K27me3 antibody was added and incubated for 1 h in a wet box on shaker at room temperature. The plate was washed again with TBS-T for 3 times, and blocked with 3% BSA per well for 10 min. Horseradish peroxidase-labeled secondary antibody was added and reacted in a wet box at room temperature for 1 h, and finally, washed with TBS-T for 3 times. 2 mg/ml OPD color developing solution (1004/well) was added for coloring, and the reaction was stopped with 2M H2SO4 (50 μL/well). The plate was read by a plate reader at 490 nm and IC50 of the compound was calculated using SoftMax Pro 5.4.1 software.
The target of assay [2] is PRC2 complex (EZH2 Y641F/EED/SUZ12/RbAp48/AEBP2) (Homo sapiens (Human), UniProt Q15910, Y641F). Put plainly: Activity of a compound to PRC2 complex (EZH2 Y641F), HTRF. (Time-resolved FRET reads energy transfer from a long-lived donor to a nearby acceptor.)
Protocol: Determination of the Activity of a Compound to PRC2 Complex (EZH2Y641F):
Detection Method: Homogeneous Time-Resolved Fluorescence (HTRF)
Reaction was conducted in darkness at room temperature for 4 h. […] The IC50 values of the compounds were calculated using SoftMax Pro 5.4.1 software.
[3] abbreviates: read-out: IC50 (EZH2_Y641F), EZH2 Y641F PRC2 complex, HTRF, class symbols.

Usually IC50 stands for the concentration that gives 50% inhibition.

Chain of PRC2 complex (EZH2/EED/SUZ12/RbAp48/AEBP2) (Q15910 whole entry): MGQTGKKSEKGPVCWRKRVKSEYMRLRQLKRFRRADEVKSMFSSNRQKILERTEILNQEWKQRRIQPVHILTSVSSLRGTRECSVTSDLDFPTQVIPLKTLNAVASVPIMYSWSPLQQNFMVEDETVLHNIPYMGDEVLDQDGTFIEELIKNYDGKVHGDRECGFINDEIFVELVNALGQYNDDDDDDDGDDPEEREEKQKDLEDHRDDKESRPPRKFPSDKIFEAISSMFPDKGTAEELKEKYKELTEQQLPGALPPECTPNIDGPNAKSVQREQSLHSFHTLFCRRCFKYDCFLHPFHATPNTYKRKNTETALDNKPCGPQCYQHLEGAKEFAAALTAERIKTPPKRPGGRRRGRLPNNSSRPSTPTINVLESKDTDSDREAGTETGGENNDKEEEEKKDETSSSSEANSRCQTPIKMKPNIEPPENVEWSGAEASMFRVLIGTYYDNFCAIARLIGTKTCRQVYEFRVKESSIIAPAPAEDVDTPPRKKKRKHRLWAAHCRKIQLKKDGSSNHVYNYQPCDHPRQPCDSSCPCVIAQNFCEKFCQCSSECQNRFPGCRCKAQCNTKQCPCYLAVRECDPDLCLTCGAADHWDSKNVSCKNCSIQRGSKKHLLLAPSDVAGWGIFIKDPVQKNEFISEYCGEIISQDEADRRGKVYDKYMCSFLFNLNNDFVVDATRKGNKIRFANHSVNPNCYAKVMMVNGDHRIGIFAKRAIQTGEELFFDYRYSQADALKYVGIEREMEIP
Chain of PRC2 complex (EZH2/EED/SUZ12/RbAp48/AEBP2) (O75530 whole entry partner): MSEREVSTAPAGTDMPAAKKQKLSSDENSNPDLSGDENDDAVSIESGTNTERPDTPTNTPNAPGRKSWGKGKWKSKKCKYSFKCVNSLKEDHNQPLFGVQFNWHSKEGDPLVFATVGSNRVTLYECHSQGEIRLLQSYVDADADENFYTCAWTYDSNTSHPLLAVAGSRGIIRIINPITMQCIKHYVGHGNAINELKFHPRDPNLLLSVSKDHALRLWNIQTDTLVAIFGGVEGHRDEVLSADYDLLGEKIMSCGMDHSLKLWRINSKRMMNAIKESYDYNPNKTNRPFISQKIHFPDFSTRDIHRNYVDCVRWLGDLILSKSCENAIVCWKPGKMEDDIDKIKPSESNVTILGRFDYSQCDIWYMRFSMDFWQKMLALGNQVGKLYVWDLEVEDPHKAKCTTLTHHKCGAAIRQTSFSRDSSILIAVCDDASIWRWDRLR
Chain of PRC2 complex (EZH2/EED/SUZ12/RbAp48/AEBP2) (Q15022 whole entry partner): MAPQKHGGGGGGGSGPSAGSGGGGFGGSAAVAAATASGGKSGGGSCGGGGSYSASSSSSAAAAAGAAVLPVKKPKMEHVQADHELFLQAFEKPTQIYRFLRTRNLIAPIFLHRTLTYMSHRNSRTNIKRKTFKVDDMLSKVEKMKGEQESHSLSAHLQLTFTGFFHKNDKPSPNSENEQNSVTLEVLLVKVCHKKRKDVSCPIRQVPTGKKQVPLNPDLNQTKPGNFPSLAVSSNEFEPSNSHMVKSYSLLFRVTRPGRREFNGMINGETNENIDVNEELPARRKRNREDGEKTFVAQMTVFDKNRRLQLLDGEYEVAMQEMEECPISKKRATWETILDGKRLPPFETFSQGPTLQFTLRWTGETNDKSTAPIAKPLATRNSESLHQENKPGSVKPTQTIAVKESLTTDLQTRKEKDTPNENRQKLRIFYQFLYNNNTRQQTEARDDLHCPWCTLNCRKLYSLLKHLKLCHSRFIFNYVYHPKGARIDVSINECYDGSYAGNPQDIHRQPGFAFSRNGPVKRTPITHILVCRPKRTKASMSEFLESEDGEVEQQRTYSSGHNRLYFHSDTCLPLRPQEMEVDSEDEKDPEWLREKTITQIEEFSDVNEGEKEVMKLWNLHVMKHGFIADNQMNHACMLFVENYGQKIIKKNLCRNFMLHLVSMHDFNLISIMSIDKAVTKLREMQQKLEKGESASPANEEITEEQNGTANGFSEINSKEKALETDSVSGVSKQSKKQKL
Chain of PRC2 complex (EZH2/EED/SUZ12/RbAp48/AEBP2) (Q09028 whole entry partner): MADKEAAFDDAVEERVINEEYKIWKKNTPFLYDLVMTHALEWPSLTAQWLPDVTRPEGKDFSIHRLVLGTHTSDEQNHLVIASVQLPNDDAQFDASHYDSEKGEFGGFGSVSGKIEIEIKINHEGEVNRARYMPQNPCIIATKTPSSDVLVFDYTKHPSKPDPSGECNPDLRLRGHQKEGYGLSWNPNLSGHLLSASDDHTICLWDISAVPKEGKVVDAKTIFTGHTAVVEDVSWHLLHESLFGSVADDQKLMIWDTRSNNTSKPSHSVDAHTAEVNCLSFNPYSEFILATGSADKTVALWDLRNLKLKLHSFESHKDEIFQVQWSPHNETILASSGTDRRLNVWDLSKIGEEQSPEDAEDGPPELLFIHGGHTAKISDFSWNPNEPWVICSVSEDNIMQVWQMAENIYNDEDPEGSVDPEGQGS
Chain of PRC2 complex (EZH2/EED/SUZ12/RbAp48/AEBP2) (Q6ZN18 whole entry partner): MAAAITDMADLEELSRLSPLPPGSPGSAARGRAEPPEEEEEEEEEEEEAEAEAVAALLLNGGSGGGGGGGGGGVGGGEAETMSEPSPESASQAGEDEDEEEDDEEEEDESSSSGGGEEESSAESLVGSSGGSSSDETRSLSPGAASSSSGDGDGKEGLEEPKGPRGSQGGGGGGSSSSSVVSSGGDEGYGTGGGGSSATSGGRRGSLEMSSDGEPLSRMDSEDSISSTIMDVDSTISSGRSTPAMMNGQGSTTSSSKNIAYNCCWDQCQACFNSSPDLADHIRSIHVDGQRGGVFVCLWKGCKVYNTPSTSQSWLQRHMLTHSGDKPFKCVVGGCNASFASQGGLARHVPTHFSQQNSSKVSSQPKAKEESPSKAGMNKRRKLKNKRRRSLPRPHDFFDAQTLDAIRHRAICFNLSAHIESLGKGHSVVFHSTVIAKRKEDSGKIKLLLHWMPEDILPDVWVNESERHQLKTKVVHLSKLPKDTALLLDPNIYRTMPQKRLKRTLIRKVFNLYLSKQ
Chain of PRC2 complex (EZH2 Y641F/EED/SUZ12/RbAp48/AEBP2) (Q15910 whole entry Y641F): as the sequence (Q15910 whole entry) above, with Y641F counted along it
Chain of PRC2 complex (EZH2 Y641F/EED/SUZ12/RbAp48/AEBP2) (O75530 whole entry partner): as the sequence (O75530 whole entry partner) above
Chain of PRC2 complex (EZH2 Y641F/EED/SUZ12/RbAp48/AEBP2) (Q15022 whole entry partner): as the sequence (Q15022 whole entry partner) above
Chain of PRC2 complex (EZH2 Y641F/EED/SUZ12/RbAp48/AEBP2) (Q09028 whole entry partner): as the sequence (Q09028 whole entry partner) above
Chain of PRC2 complex (EZH2 Y641F/EED/SUZ12/RbAp48/AEBP2) (Q6ZN18 whole entry partner): as the sequence (Q6ZN18 whole entry partner) above

Consider `Cc1cc(C)c(CNC(=O)c2cc3cccn3c(N(C)C3CCOCC3)c2C)c(=O)[nH]1` [Example 55, N-((4,6-dimethyl-2-oxo-1,2-dihydropyridin-3-yl)methyl)-6-methyl-5-(methyl(tetrahydro-2H-pyran-4-yl)amino)indolizine-7-carboxamide], for which the IC50 in assay [1] and in assay [2] (setting [3]) was 100 to 1000 nM throughout.
In assay [1], `Cc1cc(C)c(CNC(=O)c2cc3cc(Br)cn3c(N(C)C3CCOCC3)c2C)c(=O)[nH]1` [Example 57] displayed an IC50 below 100 nM.
For the compound `Cc1cc(C)c(CNC(=O)c2cc3cccn3c(C(C)OCc3ccccc3F)c2C)c(=O)[nH]1` (stereo not shown) [Example 11], the IC50 in assay [1] and in assay [2] (setting [3]) was 100 to 1000 nM throughout.
Turning to `Cc1cc(C)c(CNC(=O)c2cc3cccn3c(C(C)OCc3c(F)cccc3F)c2C)c(=O)[nH]1` (stereo not shown) [Example 13], the IC50 in assay [1] and in assay [2] (setting [3]) was 100 to 1000 nM each time.
For `Cc1cc(C)c(CNC(=O)c2cc3cccn3c(C(C)OCc3ccc(F)cc3)c2C)c(=O)[nH]1` (stereo not shown) [Example 10], the half-inhibitory concentration (IC50) in assay [1] and in assay [2] (setting [3]) was 100 to 1000 nM in each case.
For `COc1cccc(COC(C)c2c(C)c(C(=O)NCc3c(C)cc(C)[nH]c3=O)cc3cccn23)c1` (stereo not shown) [Example 14, N-((4,6-dimethyl-2-oxo-1,2-dihydropyridin-3-yl)methyl)-5-(1-((3-methoxybenzyl)oxy)ethyl)-6-methylindolizine-7-carboxamide], the IC50 in assay [1] and in assay [2] (setting [3]) was 100 to 1000 nM in each case.
Take `Cc1cc(C)c(CNC(=O)c2cc3cccn3c(C(C)c3ccccc3)c2C)c(=O)[nH]1` (stereo not shown) [Example 25, N-((4,6-dimethyl-2-oxo-1,2-dihydropyridin-3-yl)methyl)-6-methyl-5-(1-phenylethyl)indolizine-7-carboxamide]: the IC50 in assay [1] was below 100 nM; in assay [2] (setting [3]), 100 to 1000 nM.
Taken in the same sequence, the figures for `Cc1cc(C)c(CNC(=O)c2cc3cccn3c(C(C)OCc3nccs3)c2C)c(=O)[nH]1` (stereo not shown) [Example 18, N-((4,6-dimethyl-2-oxo-1,2-dihydropyridin-3-yl)methyl)-6-methyl-5-(1-(thiazole-2-ylmethoxy)ethyl)indolizine-7-carboxamide] were 100 to 1000 nM and below 100 nM.
As to `Cc1cc(C)c(CNC(=O)c2cc3c(-c4ccc(N)nc4)ccn3c(C(C)N3CCN(CC(F)(F)F)CC3)c2C)c(=O)[nH]1` (stereo not shown) [Compound 158, 1-(6-aminopyridin-3-yl)-N-((4,6-dimethyl-2-oxo-1,2-dihydropyridin-3-yl)methyl)-6-methyl-5-(1-(4-(2,2,2-trifluoroethyl)piperazin-1-yl)ethyl)indolizine-7-carboxamide], the IC50 in assay [1] and in assay [2] was below 100 nM in each case.
As to `Cc1cc(C)c(CNC(=O)c2cc3cccn3c(C(C)OCc3ccsc3)c2C)c(=O)[nH]1` (stereo not shown) [Example 19, N-((4,6-dimethyl-2-oxo-1,2-dihydropyridin-3-yl)methyl)-6-methyl-5-(1-(thiophene-3-ylmethoxy)ethyl)indolizine-7-carboxamide], the IC50 in assay [1] and in assay [2] (setting [3]) was 100 to 1000 nM throughout.
For `Cc1cc(C)c(CNC(=O)c2cc3cccn3c(C(C)OCc3cccc(F)c3)c2C)c(=O)[nH]1` (stereo not shown) [Example 12], the IC50 in assay [1] and in assay [2] (setting [3]) was 100 to 1000 nM in each case.
For the compound `C#CCOC(C)c1c(C)c(C(=O)NCc2c(C)cc(C)[nH]c2=O)cc2cccn12` (stereo not shown) [Example 4, N-((4,6-dimethyl-2-oxo-1,2-dihydropyridin-3-yl)methyl)-6-methyl-5-(1-(prop-2-yn-1-yloxy)ethyl)indolizine-7-carboxamide], the IC50 in assay [1] and in assay [2] (setting [3]) was 100 to 1000 nM in each case.
In the case of `Cc1cc(C)c(CNC(=O)c2cc3c(-c4ccc(N)nc4)ccn3c([C@H](C)N3CCN(CC(F)(F)F)CC3)c2C)c(=O)[nH]1` (single isomer, unassigned) [Compound 159, (S)-1-(6-aminopyridin-3-yl)-N-((4,6-dimethyl-2-oxo-1,2-dihydropyridin-3-yl)methyl)-6-methyl-5-(1-(4-(2,2,2-trifluoroethyl)piperazin-1-yl)ethyl)indolizine-7-carboxamide or (R) 1-(6-aminopyridin-3-yl)-N-((4,6-dimethyl-2-oxo-1,2-dihydropyridin-3-yl)methyl)-6-methyl-5-(1-(4-(2,2,2-trifluoroethyl)piperazin-1-yl)ethyl)indolizine-7-carboxamide], the IC50 in assay [1] and in assay [2] (setting [3]) was below 100 nM in each case.
In the case of “1-(2-chloropyridin-4-yl)-N-((4-methoxy-6-methyl-2-oxo-1,2-dihydropyridin-3-yl)methyl)-6-methyl-5-(1-(4-(2,2,2-trifluoroethyl)piperazin-1-yl)ethyl)indolizine-7-carboxamide [Compound 167]”, the IC50 in assay [2] (setting [3]) is below 100 nM.
`COc1cc(-c2ccn3c(C(C)N4CCN(CC(F)(F)F)CC4)c(C)c(C(=O)NCc4c(OC)cc(C)[nH]c4=O)cc23)ccn1` (stereo not shown) [Compound 193, N-((4-methoxy-6-methyl-2-oxo-1,2-dihydropyridin-3-yl)methyl)-1-(2-methoxypyridine-4-yl)-6-methyl-5-(1-(4-(2,2,2-trifluoroethyl)piperazin-1-yl)ethyl)indolizine-7-carboxamide]: the IC50 in assay [2] (setting [3]) was below 100 nM.
Still for that read-out and setting: then `Cc1cc(C)c(CNC(=O)c2cc3cc(-c4ccnn4C)cn3c(C(C)N3CCOCC3)c2C)c(=O)[nH]1` (stereo not shown) [Example 41, N-((4,6-dimethyl-2-oxo-1,2-dihydropyridin-3-yl)methyl)-6-methyl-2-(1-methyl-1H-pyrazol-5-yl)-5-(1-morpholineylethyl)indolizine-7-carboxamide], with below 100 nM.
Same read-out and setting: the result for `Cc1cc(C)c(CNC(=O)c2cc3cccn3c(C(C)OCc3ccccn3)c2C)c(=O)[nH]1` (stereo not shown) [Example 15, N-((4,6-dimethyl-2-oxo-1,2-dihydropyridin-3-yl)methyl)-6-methyl-5-(1-(pyridine-2-ylmethoxy)ethyl)indolizine-7-carboxamide] reads 100 to 1000 nM.
Regarding `Cc1cc(C)c(CNC(=O)c2cc3cccn3c(C(C)OCc3ccn(C)n3)c2C)c(=O)[nH]1` (stereo not shown) [Example 20], the half-maximal inhibitory concentration (IC50) in assay [1] and in assay [2] (setting [3]) was 100 to 1000 nM each time.
On to `Cc1cc(C)c(CNC(=O)c2cc3c(-c4ccccc4)ccn3c(C(C)N3CCOCC3)c2C)c(=O)[nH]1` (stereo not shown) [Example 81], for which, in assay [2] (setting [3]), the IC50 is below 100 nM.
The same measure, in the same setting: the result for `COc1cc(C)[nH]c(=O)c1CNC(=O)c1cc2c(-c3ccc(C)nn3)ccn2c(C(C)N2CCN(CC(F)(F)F)CC2)c1C` (stereo not shown) [Compound 199, N-((4-methoxy-6-methyl-2-oxo-1,2-dihydropyridin-3-yl)methyl)-6-methyl-1-(6-methylpyridazin-3-yl)-5-(1-(4-(2,2,2-trifluoroethyl)piperazin-1-yl)ethyl)indolizine-7-carboxamide] reads below 100 nM.
In turn, `CCCc1cc(C)[nH]c(=O)c1CNC(=O)c1cc2c(-c3ccc(N)nc3)ccn2c(C(C)N2CCN(CC(F)(F)F)CC2)c1C` (stereo not shown) [Compound 185, 1-(6-aminopyridin-3-yl)-6-methyl-N-((6-methyl-2-oxo-4-propyl-1,2-dihydropyridine-3-yl)methyl)-5-(1-(4-(2,2,2-trifluoroethyl)piperazin-1-yl)ethyl)indolizine-7-carboxamide] came in with a half-inhibitory concentration (IC50) in assay [2] below 100 nM.
